Results published in patent US20040034036A1, “N-(3,5-dichloro-2-methoxyphenyl)-4-methoxy-3-piperazin-1-yl-benzenesulfonamide” (priority 2000, published 2004).

How the values were obtained:
[1] = MEST (Maximal electroshock seizure threshold) test; format: in vivo; settings: procedures described by Upton et al.
[2] = CNS penetration; format: in vivo; settings: relative to N-(2,3,5-Trichlorophenyl)-4methoxy-3-piperazin-1-ylbenzenesulfonamide (Example 136 of WO 99/02502)
[3] = oral bioavailability; settings: in vivo

| SMILES | effect in MEST test [1] | CNS penetration [2] | oral bioavailability [3] |
| --- | --- | --- | --- |
| COc1ccc(S(=O)(=O)Nc2cc(Br)cc(F)c2Br)cc1N1CCNCC1 [Example 140 of WO 99/02502, N-(2,5-Dibromo-3-fluorophenyl)-4-methoxy-3-piperazin-1-ylbenzenesulfonamide, reference compound] | pro-convulsant effect |  |  |
| COc1ccc(S(=O)(=O)Nc2cc(Cl)cc(Cl)c2OC)cc1N1CCNCC1 [compound of formula (I), N-(3,5-Dichloro-2-methoxy-phenyl)-4-methoxy-3-piperazin-1-yl-benzenesulfonamide] | strongly anti-convulsant effect | enhanced | high |
